Experimental data published in patent publication US20040167061A1, “Substantially homogeneous bio-affecting material having a pre-determined ratio of bioaffecting component to cell targeting component, the method for making such a material and the method of its use” (priority 2003, published 2004).

Assays:
human mesothelioma cells = conditions: nude mice with (drug-resistant) human mesothelioma cells; compared to animals treated only with doxorubicin; cited from earlier work
[1] = test system: leukemic cells in peripheral blood; conditions: cited from earlier work
NADH-oxidase = conditions: plasma membrane redox enzyme; cited from earlier work
[2] = test system: metastatic lesions from a sarcoma; conditions: treatment begun August 2000
[3] = test system: multi-drug resistant cells; conditions: cited from earlier work
advanced ovarian cancer = test: unpublished randomized clinical study in advanced ovarian cancer; format: in vivo, human; conditions: equivalent to 1 mg doxorubicin per day on days 15 through 19 of monthly cycles; time between diagnosis and randomization 18 months
Experimental: There is an unpublished clinical study of 23 patients with advanced ovarian cancer who were randomized into test (12 patients) and placebo (11 patients) groups. The test group received transferrin-doxorubicin conjugates equivalent to 1 mg doxorubicin per day on days 15 through 19 of monthly treatment cycles.

Molecule	survival (prolonging life) (human mesothelioma cells)	decrease of number of leukemic cells in peripheral blood ([1]; 7 patients, 1 mg/day iv for 5 days, within 10-days following therapy)	extension of disease ([1]; bone marrow biopsies before and after treatment)	toxic effects ([1]; seven acute leukemia patients, 1 mg/day intravenously for 5 days)	inhibition of NADH-oxidase (NADH-oxidase)	radiological evidence of tumor ([2]; by January)	metastatic lesions in the lungs ([2]; by November)	killing of multi-drug resistant cells [3]	Cox regression estimates of survival rates, test versus placebo (advanced ovarian cancer)
glutaraldehyde-prepared transferrin-doxorubicin conjugates	significantly prolonging life	86%	no extension of disease	no toxic effects	–	–	–	–	–
COc1cccc2c1C(=O)c1c(O)c3c(c(O)c1C2=O)C[C@@](O)(C(=O)CO)C[C@@H]3O[C@H]1C[C@H](N)[C@H](O)[C@H](C)O1 [doxorubicin]	–	–	–	–	efficient inhibitor	–	–	–	–
transferrin-doxorubicin conjugates	–	–	–	–	inhibit	no radiological evidence of tumor	substantially cleared of metastatic lesions	effectively kill	significant difference
